Columns and labels:
[1] = test system: unanesthetized dogs; assay: Blood pressure variation with time in unanesthetized dogs; assay type: in vivo, dog; conditions: 1.0 mg, oral
Procedure: (§1) A number of dog was fed freely in a feeding room and those weighing 7 to 12 kg in good health were selected regardless of their gender.
(§2) The test dog was anesthetized with 30 mg/kg of pentobarbital sodium by intravenous injection and the left femoral artery and femoral vein were separated carefully. Silicone catheter, specially prepared and filled with saline treated with heparin (1,000 IU/ml), was cannulated into the blood vessels. After the surgery, the dog was constrained to measure the blood pressure continuously with Gould 2000 physiograph adapted to a Grass P23XL pressure transducer; and the heart rate was monitored with ECG/Biotacho amplifier. The dog was tested at least 2 days after the surgery.
(§3) 10 mg/kg of furosemide was injected intramuscularly 18 hours (in case of intravenous injection, 2 hours) before the beginning of the test (administration of the test compound) to improve the activity of renin in blood plasma. After the injection of furosemide, neither food nor water was provided. […] The blood pressure and heart rate were measured up to 8 hours after the administration of each test compound.

[2] = test system: renal hypertensive rats; assay: Duration of action in renal hypertensive rats; assay type: in vivo, Sprague-Dawley rat; conditions: 3 mg/kg oral
Excerpt: To induce renal hypertension, left renal artery of 4 week-old male Sprague-Dawley rat (from The Korea Research Institute of Chemical Technology) was ligated. The rat was anesthetized with ether and the surgical region on the left abdomen of the rat was shaved, disinfected, and then incised about 1 cm vertically. The renal artery near abdominal aorta was isolated carefully from surrounding tissues and veins, and then ligated completely with a suture (4/0 sterile surgical silk). The muscular strata and skin of the surgical area were sutured with a suture (4/0 sterile surgical silk). The surgical region was disinfected to prevent infection and thereafter, 200 to 250 mg/kg/day of cephazolin sodium was injected intramuscularly for 2 days. 6 to 8 days after the ligation, rats showing systolic pressure of more than 180 mmHg were selected for renal hypertension test. The blood pressure was determined by a tail-cuff method from the tail under unanesthetized condition (Gerold, M. et al., Arzneimittel-Forsch., 18, 1285(1968)).
Each of the compounds to be tested was administered intravenously or orally into the renal hypertensive rat. The blood pressure of the rat was determined by direct method (Chiu, A. T. et al., J. Pharmacol. Exp. Ther., 250, 867(1989)) using a catheter. The rat was anesthetized with ketamine hydrochloride (125 mg/kg, i.p.) and a catheter was filled with saline and inserted into a carotid artery and […]. The surgical area was sutured with a metal clip. The rat was relaxed at least 3 hours and the catheter in the carotid artery was adapted to an isotec pressure transducer to determine the blood pressure and heart rate with a physiograph (Linearcorder WR3310). After the blood pressure was stabilized, the test compound was administered intravenously or orally. For intravenous administration, the administered volume and washing volume were 1.0 ml/kg and 0.2 ml, respectively. The blood pressure and heart rate were measured in regular intervals up to 24 hours after the administration of the test compound and compared with those measured after the administration of the control compound Losartan.
The test compound was dissolved in 0.05N KOH for intravenous administration and suspended in Tween 80 for oral administration.
The compound of Example 1 and the Merck compound were tested using the hypertensive rats of test 2(i). 3 mg/kg of each compound was administered orally and blood pressure lowering effect with time was determined to measure the duration of action of the compounds.

[3] = test system: furosemide-administered dogs; assay: Duration of action in furosemide-administered dogs; assay type: in vivo, dog; conditions: 0.3 mg oral
Procedure: as §1, §2, §3
The compound of Example 1 and the Merck compound were administered orally to the furosemide-administrated dogs as in test 3(i), and blood pressure lowering effect was measured with time.

Q: Which results are given for `CCCCc1nc2cc(-c3cccc[n+]3[O-])c(CO)nc2n1Cc1ccc(-c2ccccc2-c2nn[nH]n2)cc1` [Example 1, 2-Butyl-5-hydroxymethyl-6-(1-oxy-pyridin-2-yl)-3-[2'-(1H-tetrazol-5-yl)-biphenyl-4-ylmethyl]-3H-imidazo[4,5-b]pyridine]?
A: Maximum Blood Pressure Lowering Effect ([1]; 0.5 hr): -17.5%; Maximum Blood Pressure Lowering Effect ([1]; 1 hr): -21.4%; Maximum Blood Pressure Lowering Effect ([1]; 2 hr): -23.6%; Maximum Blood Pressure Lowering Effect ([1]; 4 hr): -24.8%; Maximum Blood Pressure Lowering Effect ([1]; 6 hr): -21.7%; Maximum Blood Pressure Lowering Effect ([1]; 8 hr): -13.2%; Maximum Blood Pressure Lowering Effect ([2]; 0 min): 0%; Maximum Blood Pressure Lowering Effect ([2]; 10 min): -11%; Maximum Blood Pressure Lowering Effect ([2]; 20 min): -19%; Maximum Blood Pressure Lowering Effect ([2]; 30 min): -32%; Maximum Blood Pressure Lowering Effect ([2]; 60 min): -48%; Maximum Blood Pressure Lowering Effect ([2]; 90 min): -42%; Maximum Blood Pressure Lowering Effect ([2]; 120 min): -44%; Maximum Blood Pressure Lowering Effect ([2]; 240 min): -58%; Maximum Blood Pressure Lowering Effect ([2]; 360 min): -60%; Maximum Blood Pressure Lowering Effect ([2]; 1320 min): -48%; Maximum Blood Pressure Lowering Effect ([2]; 1440 min): -49%; duration of action compared with the Merck compound ([2]; renal hypertensive rats): far longer duration of action than the Merck compound; Maximum Blood Pressure Lowering Effect ([3]; 0 min): 0.0%; Maximum Blood Pressure Lowering Effect ([3]; 10 min): 2.2%; Maximum Blood Pressure Lowering Effect ([3]; 20 min): -1.1%; Maximum Blood Pressure Lowering Effect ([3]; 30 min): -5.9%; Maximum Blood Pressure Lowering Effect ([3]; 60 min): -11.4%; Maximum Blood Pressure Lowering Effect ([3]; 90 min): -12.9%; Maximum Blood Pressure Lowering Effect ([3]; 120 min): -14.8%; Maximum Blood Pressure Lowering Effect ([3]; 150 min): -16.1%; Maximum Blood Pressure Lowering Effect ([3]; 180 min): -16.7%; Maximum Blood Pressure Lowering Effect ([3]; 210 min): -17.4%; Maximum Blood Pressure Lowering Effect ([3]; 240 min): -18.2%; Maximum Blood Pressure Lowering Effect ([3]; 270 min): -17.0%; Maximum Blood Pressure Lowering Effect ([3]; 300 min): -20.5%; Maximum Blood Pressure Lowering Effect ([3]; 330 min): -20.7%; Maximum Blood Pressure Lowering Effect ([3]; 360 min): -20.4%; Maximum Blood Pressure Lowering Effect ([3]; 390 min): -20.1%; Maximum Blood Pressure Lowering Effect ([3]; 420 min): -20.5%; Maximum Blood Pressure Lowering Effect ([3]; 450 min): -20.5%; Maximum Blood Pressure Lowering Effect ([3]; 480 min): -20.0%; time for which the maximum blood pressure lowering effect lasted after the administration ([3]; Table 6, dogs): up to 8 hours
